Results taken from patent US20260216138A1, “IDENTIFICATION OF OTUD7B INHIBITOR 7BI AND ITS APPLICATION IN REDUCING GROWTH OF NSCLC AND LEUKEMIA CELLS” (The University of North Carolina at Chapel Hill, priority 2023, published 2026).
“Also recorded” adds a separate entry of the source.

Key:
[1] = tested on: OTUD7B-induced GβL deubiquitination; test: In-cell GβL ubiquitination assay (Ni-NTA pulldown, HEK293 cells); assay type: cell-based; conditions: HEK293 cells transfected with DNA constructs, compound for 16 hrs; listed as #19
Procedure: FIGS. 2A-2L show results of validation for OTUD7B small molecule inhibitors in cells. (A-D) IB analyses of WCL from indicated NSCLC cells treated with […] of indicated compounds for 16 hrs. (E, F) IB analyses of WCL from either A549 (E) or HEK293 (F) cells treated with indicated doses of compound #19 for 16 hrs. (G) IB analyses of Ni-NTA pulldowns and WCL from HEK293 cells transfected with indicated DNA constructs. Where indicated, cells were treated with […] of indicated compounds for 16 hrs before cell collection. (H-L) Quantifications of cell viability by MTT assays in A549 cells treated with indicated doses of indicated compounds for 72 hrs. Error bars were calculated as mean+/−SD, n=3. *p<0.05 (one-way ANOVA test).

[2] = target: T1, OTUD7B (Homo sapiens, UniProt Q6GQQ9); test: Ubiquitin-AMC assay, OTUD7B; assay type: biochemical; conditions: 50 μM 7Bi, 300 nM OTUD7B, 2 uM ubiquitin-AMC
T1 construct: OTUD7B (residues 56-446); GST (N, cleaved yes); made in house; host or cells: E. coli BL21-Codon Plus (DE3)-RIL
T1 sequence (Q6GQQ9 56-446): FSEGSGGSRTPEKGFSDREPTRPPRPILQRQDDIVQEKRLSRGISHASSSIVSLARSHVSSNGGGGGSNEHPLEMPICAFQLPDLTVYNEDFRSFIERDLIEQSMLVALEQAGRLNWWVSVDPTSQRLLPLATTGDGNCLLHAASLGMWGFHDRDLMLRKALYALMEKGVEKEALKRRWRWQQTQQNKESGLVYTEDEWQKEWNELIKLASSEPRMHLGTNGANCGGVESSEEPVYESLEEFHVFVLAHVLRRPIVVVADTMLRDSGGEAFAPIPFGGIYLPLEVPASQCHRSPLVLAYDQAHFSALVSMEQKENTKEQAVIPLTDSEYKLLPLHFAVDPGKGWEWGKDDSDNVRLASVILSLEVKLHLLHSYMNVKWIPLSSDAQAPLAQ
Procedure: 50 μM 7Bi were incubated with 300 nM OTUD7B (residues 56-446), 10 μM OTUD7A (residues 1-462), 200 nM USP21 (residues 196-565), or 500 nM USP9X (residues 1551-1970) in reaction buffer (20 mM HEPES pH=8.0, 200 mM NaCl, 0.25 mg/mL BSA and 0.005% Tween-20) for 5 min at room temperature. Then, 2 uM ubiquitin-AMC was added to start the reaction. The fluorescence emission data was collected at an excitation wavelength of 355 nm and emission wavelength of 460 nm every 3 min. Reactions were completed three times to generate the error bars.

[3] = tested on: H1299 cells; test: Colony formation / growth of H1299 cells; assay type: cell-based; conditions: treated once for 10 days
Procedure: 500 cells from OTUD7B depleted A549 cells were seeded into each well of 6-well plates and cultured in the 37° C. incubator with 5% CO2 for 10-15 days until formation of visible colonies. Triplicates were performed. To test the effect of a given inhibitor on colony formation ability, 800 cells from A549, H520 and H1299 cell lines were seeded into each well of 6-well plates, respectively. Each inhibitor was added at indicated concentration the next day. Colonies were counted after 10 days of treatment. The colony staining method was as described. […] Colony numbers were counted manually. […]
2,000 cells from indicated NSLC cell lines were seeded into each well of 96-well plates. Cell viability was measured 3 days post-treatment using MTT assays following manufacturer's instruction. […] Inhibitor was added the next day at indicated concentration and cell viability was measured after 3-day treatment. For cell proliferation assays in THP1, K562 and HL60 cell lines, 1×10^6 cells from each indicated cell line were seeded in 12.5 cm2 cell culture flask and cells were counted by hemocytometer under microscope at indicated time to monitor cell proliferation. […] Inhibitor was added the next day at indicated concentrations and cell number was counted after 3 days treatment. […]

[4] = tested on: HEK293 cells; test: Cell viability by MTT assay in HEK293 cells; assay type: cell-based; conditions: 72 hrs
Procedure: 2,000 cells from indicated NSLC cell lines were seeded into each well of 96-well plates. Cell viability was measured 3 days post-treatment using MTT assays following manufacturer's instruction. For cell viability assays with inhibitor treatment, 2,000 cells from indicated NSLC and HEK293 cell lines were seeded in 96-well plate. Inhibitor was added the next day at indicated concentration and cell viability was measured after 3-day treatment. For cell proliferation assays in THP1, K562 and HL60 cell lines, 1×10^6 cells from each indicated cell line were seeded in 12.5 cm2 cell culture flask and cells were counted by hemocytometer under microscope at indicated time to monitor cell proliferation. To test inhibitor effects on THP1, K562 and HL60 cell growth, 2×10^5 cells were seeded in 12.5 cm2 cell culture flask. Inhibitor was added the next day at indicated concentrations and cell number was counted after 3 days treatment. Three independent experiments were performed to generate error bars.

Cc1cc(NC(=O)c2cnn(C)c2C(=O)Nc2cc(C)nn2C2CCCC2)n(C2CCCC2)n1 [7Bi]
blocking OTUD7B-induced GβL deubiquitination in cells [1]: partially blocked OTUD7B-induced GβL deubiquitination; also recorded: able to block OTUD7B-mediated GβL deubiquitination in cells | inhibition of hydrolysis of ubiquitin-AMC by OTUD7B [2]: efficiently inhibited hydrolysis of ubiquitin-AMC | cell growth [3]: reduced growth | cell growth (MTT) [4]: reduced growth
